Entries after “also recorded” stand apart in the source; their conditions may differ.
Tests used:
MOLT4 = assay: Western blot time course of Y307 dephosphorylation and target engagement; format: cell-based; details: MOLT4, increasing doses, various timepoints
Procedure: FIG. 3 illustrates a western blot analysis showing the kinetics of Y307 dephosphorylation and target engagement induced by Compound 1.
To evaluate the kinetics of Y307 dephosphorylation in the context of SMAP-mediated phosphatase activation, a time course study was conducted in the c-Myc driven T-ALL cell line MOLT4 with increasing doses of Compound 1 at various timepoints. PP2A has been well established to dephosphorylate the c-Myc proto-oncogene via dephosphorylation at Serine62 as a priming event for proteasome-mediated degradation, and prior work in the lab has validated Compound 1 mediates c-Myc proteolysis in in vitro models of c-Myc driven disease.

PP2A A-C dimer = PP2A A-C dimer (Homo sapiens, UniProt P30153+P67775); assay: Radiolytic MS footprinting of PP2A A-C dimer with and without Compound 1
Excerpt: FIG. 2 is a model illustrating a visual representation of conformational changes in the PP2A A-C dimer as detected by radiolytic MS footprinting.
In order to elucidate the conformational changes in PP2A induced by SMAPs, we conducted structural mass spectrometry using radiolytic MS footprinting, a novel approach to probe the structural alterations of complexes such as PP2A. In these experiments, hydroxyl radicals are generated by an X-ray beam and oxidatively modify solvent-exposed amino acid side chains. Areas of a protein that are solvent inaccessible are spared these modifications and can be considered protected regions. Compared to the PP2A A-C dimer alone, addition of Compound 1 induced significant changes in solvent exposure in both the A and C subunits, indicating a conformational change (FIG. 2).

A549 = assay: MTT assay with Compound 2/Dasatinib dose escalation combinations; format: cell-based; details: dose escalation of both drugs in parallel
ERK = assay: Time course phosphoproteomics with KSEA, ERK output; format: cell-based; details: H358 cells, 17.5 μM DT-061, relative to DMSO at the same time-point
Procedure: (§1) H358 cells (ATCC) were cultured at 37° C. and 5% CO2 using RPMI media supplemented with 10% FBS and 0.5% penicillin/streptomycin. Per condition, 20 million cells were treated with the appropriate reagent and harvested at the stated time point. The following are the doses used: 17.5 μM DT-061, 1 μM AZD6244, and 0.25 μM MK2206. Cell pellets were then stored at −80° C. for short term. To extract proteins, the cells were pulse sonicated in 2% SDS buffer over ice and in the presence of protease and phosphatase inhibitors. Cysteine amino acid residues were then reduced and alkylated. 800 μg of protein per sample was then digested with Lys-C and Trypsin overnight at 37° C. […]
(§2) The phospho-enriched peptides were analyzed by LC-MS/MS using a LTQ-Orbitrap Velos mass spectrometer (Thermo Scientific, Calif.) equipped with a nanoAcquity™ Ultra-high pressure liquid chromatography system (Waters, Mass.). […] The LC-MS/MS raw files were imported and analyzed by the Rosetta Elucidator™ and Mascot programs to sequence the peptides and to identify the parent protein.
(§3) The R programming language was used to generate the data and heat maps. […] Kinase-substrate relationships were determined from the PhosphoSitePlus database. […] The fold change (FC) for each identified hit was then calculated by taking the median peptide intensity with treatment, divided by median peptide intensity with DMSO. […]

SRC = assay: Time course phosphoproteomics with KSEA, SRC output; format: cell-based; details: H358 cells, 17.5 μM DT-061, relative to DMSO at the same time-point
Procedure: as §1, §2, §3

[1] = C-terminal tail peptide [303-309]/C, residue Y or F
[2] = catalytic subunit peptide [178-186]/C, residue H179
[3] = peptide [198-217]/C, residue W200
[4] = peptide [200-217]/C, residue W209
[5] = peptide [200-223]/C, residue W200
[6] = peptide [200-223]/C, residue W209
[7] = peptide [200-223]/C, residue Y218
[8] = peptide [259-265]/C, residue Y265
[9] = peptide [279-286]/C, residue K283
[10] = peptide [279-286]/C, residue Y284

PP2A A-C dimer, sequence (P30153 whole entry): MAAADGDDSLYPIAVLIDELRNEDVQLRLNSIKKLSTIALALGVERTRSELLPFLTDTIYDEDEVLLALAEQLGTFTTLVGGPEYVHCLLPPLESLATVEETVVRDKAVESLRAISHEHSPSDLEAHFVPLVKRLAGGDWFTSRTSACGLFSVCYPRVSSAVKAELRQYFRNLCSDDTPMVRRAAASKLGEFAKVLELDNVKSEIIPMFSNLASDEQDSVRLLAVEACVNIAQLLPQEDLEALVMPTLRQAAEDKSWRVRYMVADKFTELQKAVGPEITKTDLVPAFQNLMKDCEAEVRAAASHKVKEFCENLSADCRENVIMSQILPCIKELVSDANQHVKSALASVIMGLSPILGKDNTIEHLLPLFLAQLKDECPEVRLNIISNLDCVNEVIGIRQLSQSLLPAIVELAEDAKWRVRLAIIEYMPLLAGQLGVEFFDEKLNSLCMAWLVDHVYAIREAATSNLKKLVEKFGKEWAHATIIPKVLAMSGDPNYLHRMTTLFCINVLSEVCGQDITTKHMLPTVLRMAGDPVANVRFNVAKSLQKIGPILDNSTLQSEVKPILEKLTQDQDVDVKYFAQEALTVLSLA
PP2A A-C dimer, sequence (P67775 whole entry): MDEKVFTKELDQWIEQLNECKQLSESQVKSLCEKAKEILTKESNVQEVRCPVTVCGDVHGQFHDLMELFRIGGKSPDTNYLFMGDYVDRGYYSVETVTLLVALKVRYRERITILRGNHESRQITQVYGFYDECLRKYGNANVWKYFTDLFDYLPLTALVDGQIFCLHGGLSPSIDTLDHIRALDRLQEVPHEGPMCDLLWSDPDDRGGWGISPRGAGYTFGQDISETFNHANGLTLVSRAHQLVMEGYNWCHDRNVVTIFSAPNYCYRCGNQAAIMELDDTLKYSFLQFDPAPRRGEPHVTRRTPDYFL

With `O=S(=O)(NC[C@H](O)CN1c2ccccc2CCc2ccccc21)c1ccc(OC(F)(F)F)cc1` [Compound 1] the Parp cleavage (MOLT4) was “resulting in Parp cleavage in a similar time-dependent manner”, the Y307 dephosphorylation kinetics (MOLT4) was “Y307 dephosphorylation occurs as a secondary event to the initial PP2A activation; also recorded: precede Y307 dephosphorylation” and the “dephosphorylation of c-Myc” value (MOLT4) was “very rapid dephosphorylation of c-Myc”. For the same compound, the “Modification Rate, S^−1 + Ligand” value (PP2A A-C dimer; [1]) was 0.56 ± 0.06 S^−1, the Protection factor (PP2A A-C dimer; [1]) was 12.0 and the “decrease in solvent accessibility of the C terminal tail of the catalytic subunit” value (PP2A A-C dimer; Compound 1 treatment compared to control) was 12 fold. For the same compound, the “Modification Rate, S^−1 + Ligand” value (PP2A A-C dimer; [2]) was 2.4 ± 0.2 S^−1, the Protection factor (PP2A A-C dimer; [2]) was 7.2 and the “Modification Rate, S^−1 + Ligand” value (PP2A A-C dimer; [3]) was 1.8 ± 0.2 S^−1. The Protection factor (PP2A A-C dimer; [3]) was 6.2, the “Modification Rate, S^−1 + Ligand” value (PP2A A-C dimer; [4]) was 2.3 ± 0.1 S^−1 and the Protection factor (PP2A A-C dimer; [4]) was 4.6. The “Modification Rate, S^−1 + Ligand” value (PP2A A-C dimer; [5]) was 1.4 ± 0.1 S^−1, the Protection factor (PP2A A-C dimer; [5]) was 4.6 and the “Modification Rate, S^−1 + Ligand” value (PP2A A-C dimer; [6]) was 2.1 ± 0.1 S^−1. The Protection factor (PP2A A-C dimer; [6]) was 5.4, the “Modification Rate, S^−1 + Ligand” value (PP2A A-C dimer; [7]) was 0.31 ± 0.03 S^−1 and the Protection factor (PP2A A-C dimer; [7]) was 0.9. The “Modification Rate, S^−1 + Ligand” value (PP2A A-C dimer; [8]) was 0.12 ± 0.001 S^−1, the Protection factor (PP2A A-C dimer; [8]) was 4.8 and the “Modification Rate, S^−1 + Ligand” value (PP2A A-C dimer; [9]) was 0.14 ± 0.01 S^−1. The Protection factor (PP2A A-C dimer; [9]) was 15, the “Modification Rate, S^−1 + Ligand” value (PP2A A-C dimer; [10]) was 0.13 ± 0.01 S^−1 and the Protection factor (PP2A A-C dimer; [10]) was 6.1.
`O=S(=O)(N[C@@H]1CCCC(N2c3ccccc3CCc3ccccc32)[C@H]1O)c1ccc(OC(F)(F)F)cc1` (stereo partly drawn) [Compound 2] was tested, and the “decrease of the IC50 (GI50) of Compound 2” value (A549) was “nearly two-fold”.
In the case of `O=S(=O)(N[C@@H]1CCC[C@H](N2c3ccccc3Oc3ccccc32)[C@H]1O)c1ccc(OC(F)(F)F)cc1` [DT-061], the “ERK activity output (KSEA)” value (ERK) is reported as “limited suppression of ERK output” and the “SRC activity output (KSEA)” value (SRC) is reported as “minimal changes in SRC output”.
